From ChEMBL document CHEMBL3885881, “DrugMatrix”

Species on record: Rattus norvegicus
Assay: DrugMatrix - Regimen: Daily Repeat
Assay type: toxicity, organism-based, Sprague-Dawley
Design: regimen Daily Repeat, gender Male, age 6-8 weeks
Conditions: in vivo, po, route oral GAVAGE, vehicle .5 % CMC; for ABSOLUTE BASOPHIL / ABSOLUTE EOSINOPHIL / ABSOLUTE LYMPHOCYTE / ABSOLUTE MONOCYTE / ABSOLUTE SEGMENTED NEUTROPHIL / BASOPHIL / EOSINOPHIL / ERYTHROCYTE COUNT / HEMATOCRIT / HEMOGLOBIN / LEUKOCYTE COUNT / LYMPHOCYTE / MEAN CORPUSCULAR HEMOGLOBIN / MEAN CORPUSCULAR HEMOGLOBIN CONCENTRATION / MEAN CORPUSCULAR VOLUME / MONOCYTE / NEUTROPHIL / NUCLEATED RED BLOOD CELLS / PLATELET COUNT: tissue Blood; for ALANINE AMINOTRANSFERASE / ALBUMIN / ALKALINE PHOSPHATASE / ASPARTATE AMINOTRANSFERASE / BLOOD UREA NITROGEN / CARBON DIOXIDE / CHLORIDE / CHOLESTEROL / CREATINE PHOSPHOKINASE / CREATININE / GLUCOSE / LACTATE DEHYDROGENASE / LIPASE / PHOSPHORUS / POTASSIUM / SODIUM / TOTAL BILIRUBIN / TOTAL PROTEIN / URIC ACID: tissue Plasma
[1] = 0 mg/kg, 72 h, dose level Control, time 3 day
[2] = 0 mg/kg, 120 h, dose level Control, time 5 day
[3] = 15 mg/kg, 72 h, dose level Low, time 3 day
[4] = 15 mg/kg, 120 h, dose level Low, time 5 day

Q: Which results are given for C[C@@H]1O[C@@H](O[C@H]2C[C@@H](O)[C@]3(CO)[C@H]4[C@H](O)C[C@]5(C)[C@@H](C6=CC(=O)OC6)CC[C@]5(O)[C@@H]4CC[C@]3(O)C2)[C@H](O)[C@H](O)[C@H]1O [OUABAIN]?
A: ABSOLUTE BASOPHIL [1]: 0 CELLS/uL; ABSOLUTE EOSINOPHIL [1]: 130.33 CELLS/uL; ABSOLUTE LYMPHOCYTE [1]: 10030.67 CELLS/uL; ABSOLUTE MONOCYTE [1]: 41 CELLS/uL; ABSOLUTE SEGMENTED NEUTROPHIL [1]: 1298 CELLS/uL; BASOPHIL [1]: 0%; EOSINOPHIL [1]: 1%; ERYTHROCYTE COUNT [1]: 5.22 x10E6/uL; HEMATOCRIT [1]: 33.53%; HEMOGLOBIN [1]: 12.73 G/DL; LEUKOCYTE COUNT [1]: 11.5 x10E3/uL; LYMPHOCYTE [1]: 87.67%; MEAN CORPUSCULAR HEMOGLOBIN [1]: 24.45 pg; MEAN CORPUSCULAR HEMOGLOBIN CONCENTRATION [1]: 37.97 G/DL; MEAN CORPUSCULAR VOLUME [1]: 64.33 fL; MONOCYTE [1]: 0.33%; NEUTROPHIL [1]: 11%; NUCLEATED RED BLOOD CELLS [1]: 0 /100WBC; PLATELET COUNT [1]: 1310.5 x10E3/uL; ALANINE AMINOTRANSFERASE [1]: 52 u/L; ALBUMIN [1]: 4.22 G/DL; ALKALINE PHOSPHATASE [1]: 340.17 u/L; ASPARTATE AMINOTRANSFERASE [1]: 87.5 u/L; BLOOD UREA NITROGEN [1]: 15.17 mg/dL; CARBON DIOXIDE [1]: 25.5 mmol/L; CHLORIDE [1]: 101.83 MEQ/L; CHOLESTEROL [1]: 68.17 mg/dL; CREATINE PHOSPHOKINASE [1]: 379.67 u/L; CREATININE [1]: 0.17 mg/dL; GLUCOSE [1]: 181.67 mg/dL; LACTATE DEHYDROGENASE [1]: 256.17 u/L; LIPASE [1]: 8 u/L; PHOSPHORUS [1]: 12.1 mg/dL; POTASSIUM [1]: 5.88 MEQ/L; SODIUM [1]: 143.67 MEQ/L; TOTAL BILIRUBIN [1]: 0.18 mg/dL; TOTAL PROTEIN [1]: 5.92 G/DL; URIC ACID [1]: 1.7 mg/dL; ABSOLUTE BASOPHIL [2]: 0 CELLS/uL; ABSOLUTE EOSINOPHIL [2]: 31 CELLS/uL; ABSOLUTE LYMPHOCYTE [2]: 9599.17 CELLS/uL; ABSOLUTE MONOCYTE [2]: 52.83 CELLS/uL; ABSOLUTE SEGMENTED NEUTROPHIL [2]: 1050.33 CELLS/uL; BASOPHIL [2]: 0%; EOSINOPHIL [2]: 0.33%; ERYTHROCYTE COUNT [2]: 5.53 x10E6/uL; HEMATOCRIT [2]: 35.8%; HEMOGLOBIN [2]: 13.53 G/DL; LEUKOCYTE COUNT [2]: 10.73 x10E3/uL; LYMPHOCYTE [2]: 89%; MEAN CORPUSCULAR HEMOGLOBIN [2]: 24.47 pg; MEAN CORPUSCULAR HEMOGLOBIN CONCENTRATION [2]: 37.82 G/DL; MEAN CORPUSCULAR VOLUME [2]: 64.7 fL; MONOCYTE [2]: 0.5%; NEUTROPHIL [2]: 10.17%; NUCLEATED RED BLOOD CELLS [2]: 0 /100WBC; PLATELET COUNT [2]: 1028.5 x10E3/uL; ALANINE AMINOTRANSFERASE [2]: 45.33 u/L; ALBUMIN [2]: 4.33 G/DL; ALKALINE PHOSPHATASE [2]: 351.83 u/L; ASPARTATE AMINOTRANSFERASE [2]: 73.5 u/L; BLOOD UREA NITROGEN [2]: 17.83 mg/dL; CARBON DIOXIDE [2]: 24.67 mmol/L; CHLORIDE [2]: 100 MEQ/L; CHOLESTEROL [2]: 67 mg/dL; CREATINE PHOSPHOKINASE [2]: 284 u/L; CREATININE [2]: 0.2 mg/dL; GLUCOSE [2]: 152.33 mg/dL; LACTATE DEHYDROGENASE [2]: 108.67 u/L; LIPASE [2]: 8.17 u/L; PHOSPHORUS [2]: 11.17 mg/dL; POTASSIUM [2]: 6.14 MEQ/L; SODIUM [2]: 144.68 MEQ/L; TOTAL BILIRUBIN [2]: 0.22 mg/dL; TOTAL PROTEIN [2]: 6.08 G/DL; URIC ACID [2]: 1.27 mg/dL; ABSOLUTE BASOPHIL [3]: 0 CELLS/uL; ABSOLUTE EOSINOPHIL [3]: 189.33 CELLS/uL; ABSOLUTE LYMPHOCYTE [3]: 10886.33 CELLS/uL; ABSOLUTE MONOCYTE [3]: 47.33 CELLS/uL; ABSOLUTE SEGMENTED NEUTROPHIL [3]: 1443.67 CELLS/uL; BASOPHIL [3]: 0%; EOSINOPHIL [3]: 1.33%; ERYTHROCYTE COUNT [3]: 5.55 x10E6/uL; HEMATOCRIT [3]: 35.67%; HEMOGLOBIN [3]: 13.2 G/DL; LEUKOCYTE COUNT [3]: 12.57 x10E3/uL; LYMPHOCYTE [3]: 86.67%; MEAN CORPUSCULAR HEMOGLOBIN [3]: 23.77 pg; MEAN CORPUSCULAR HEMOGLOBIN CONCENTRATION [3]: 37 G/DL; MEAN CORPUSCULAR VOLUME [3]: 64.2 fL; MONOCYTE [3]: 0.33%; NEUTROPHIL [3]: 11.67%; NUCLEATED RED BLOOD CELLS [3]: 0 /100WBC; PLATELET COUNT [3]: 1296 x10E3/uL; ALANINE AMINOTRANSFERASE [3]: 52.67 u/L; ALBUMIN [3]: 4.2 G/DL; ALKALINE PHOSPHATASE [3]: 382.67 u/L; ASPARTATE AMINOTRANSFERASE [3]: 73.67 u/L; BLOOD UREA NITROGEN [3]: 15 mg/dL; CARBON DIOXIDE [3]: 27 mmol/L; CHLORIDE [3]: 99 MEQ/L; CHOLESTEROL [3]: 70.33 mg/dL; CREATINE PHOSPHOKINASE [3]: 215.33 u/L; CREATININE [3]: 0.16 mg/dL; GLUCOSE [3]: 166.33 mg/dL; LACTATE DEHYDROGENASE [3]: 88 u/L; LIPASE [3]: 8 u/L; PHOSPHORUS [3]: 12.23 mg/dL; POTASSIUM [3]: 6.54 MEQ/L; SODIUM [3]: 144.1 MEQ/L; TOTAL BILIRUBIN [3]: 0.27 mg/dL; TOTAL PROTEIN [3]: 5.93 G/DL; URIC ACID [3]: 1.97 mg/dL; ABSOLUTE BASOPHIL [4]: 0 CELLS/uL; ABSOLUTE EOSINOPHIL [4]: 66.67 CELLS/uL; ABSOLUTE LYMPHOCYTE [4]: 12127.33 CELLS/uL; ABSOLUTE MONOCYTE [4]: 105.67 CELLS/uL; ABSOLUTE SEGMENTED NEUTROPHIL [4]: 1600.33 CELLS/uL; BASOPHIL [4]: 0%; EOSINOPHIL [4]: 0.67%; ERYTHROCYTE COUNT [4]: 5.76 x10E6/uL; HEMATOCRIT [4]: 36.63%; HEMOGLOBIN [4]: 13.7 G/DL; LEUKOCYTE COUNT [4]: 13.9 x10E3/uL; LYMPHOCYTE [4]: 88.33%; MEAN CORPUSCULAR HEMOGLOBIN [4]: 23.77 pg; MEAN CORPUSCULAR HEMOGLOBIN CONCENTRATION [4]: 37.4 G/DL; MEAN CORPUSCULAR VOLUME [4]: 63.6 fL; MONOCYTE [4]: 0.67%; NEUTROPHIL [4]: 10.33%; NUCLEATED RED BLOOD CELLS [4]: 0 /100WBC; PLATELET COUNT [4]: 1337.67 x10E3/uL; ALANINE AMINOTRANSFERASE [4]: 44 u/L; ALBUMIN [4]: 4.3 G/DL; ALKALINE PHOSPHATASE [4]: 417.67 u/L; ASPARTATE AMINOTRANSFERASE [4]: 84.33 u/L; BLOOD UREA NITROGEN [4]: 17.33 mg/dL; CARBON DIOXIDE [4]: 25.67 mmol/L; CHLORIDE [4]: 102.33 MEQ/L; CHOLESTEROL [4]: 74.67 mg/dL; CREATINE PHOSPHOKINASE [4]: 260 u/L; CREATININE [4]: 0.26 mg/dL; GLUCOSE [4]: 167.33 mg/dL; LACTATE DEHYDROGENASE [4]: 187.67 u/L; LIPASE [4]: 8.67 u/L; PHOSPHORUS [4]: 11.83 mg/dL; POTASSIUM [4]: 6.55 MEQ/L; SODIUM [4]: 145.07 MEQ/L; TOTAL BILIRUBIN [4]: 0.17 mg/dL; TOTAL PROTEIN [4]: 6.2 G/DL; URIC ACID [4]: 1.8 mg/dL
